In the supplement of paper PMC10307832:

Columns and labels:
Assay in all cases: relative viability (nuclei count vs DMSO), 5 days (fraction); higher = more cells survive
VE-821 + Bortezomib = compound: CS(=O)(=O)c1ccc(-c2cnc(N)c(C(=O)Nc3ccccc3)n2)cc1 [VE-821] + CC(C)C[C@H](NC(=O)[C@H](Cc1ccccc1)NC(=O)c1cnccn1)B(O)O [Bortezomib] (partner 0.002 µM)
How it was run: (§1)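 Lung cancer cell lines in 1536-well plates got either a single drug or a fixed anchor-drug dose together with five library-drug doses (not always all listed) in √10 steps, by pin tool, on the day after seeding. Nuclei were counted after 5 days, and relative viability is the treated-to-vehicle ratio of nuclei counts. Values are medians of duplicate plates.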

VE-821 + Linsitinib = compound: CS(=O)(=O)c1ccc(-c2cnc(N)c(C(=O)Nc3ccccc3)n2)cc1 [VE-821] + C[C@]1(O)C[C@@H](c2nc(-c3ccc4ccc(-c5ccccc5)nc4c3)c3c(N)nccn32)C1 [Linsitinib] (partner 1 µM)
How it was run: as §1

Vismodegib + Pemetrexed = compound: CS(=O)(=O)c1ccc(C(=O)Nc2ccc(Cl)c(-c3ccccn3)c2)c(Cl)c1 [Vismodegib] + Nc1nc2[nH]cc(CCc3ccc(C(=O)N[C@@H](CCC(=O)O)C(=O)O)cc3)c2c(=O)[nH]1 [Pemetrexed] (partner 0.2 µM)
How it was run: as §1

Ruxolitinib + OSI-027 = compound: N#CC[C@H](C1CCCC1)n1cc(-c2ncnc3[nH]ccc23)cn1 [Ruxolitinib] + COc1cccc2cc(-c3nc([C@H]4CC[C@H](C(=O)O)CC4)n4ncnc(N)c34)[nH]c12 [OSI-027] (partner 0.5 µM)
How it was run: as §1

Cell Line | relative viability (VE-821 + Bortezomib; first compound 0.08 µM) | relative viability (VE-821 + Bortezomib; first compound 0.253 µM) | relative viability (VE-821 + Bortezomib; first compound 0.8 µM) | relative viability (VE-821 + Bortezomib; first compound 2.53 µM) | relative viability (VE-821 + Bortezomib; first compound 8 µM) | relative viability (VE-821 + Linsitinib; first compound 0.08 µM) | relative viability (VE-821 + Linsitinib; first compound 0.253 µM) | relative viability (VE-821 + Linsitinib; first compound 0.8 µM) | relative viability (VE-821 + Linsitinib; first compound 2.53 µM) | relative viability (VE-821 + Linsitinib; first compound 8 µM) | relative viability (Vismodegib + Pemetrexed; first compound 0.08 µM) | relative viability (Vismodegib + Pemetrexed; first compound 0.253 µM) | relative viability (Vismodegib + Pemetrexed; first compound 0.8 µM) | relative viability (Vismodegib + Pemetrexed; first compound 2.53 µM) | relative viability (Vismodegib + Pemetrexed; first compound 8 µM) | relative viability (Ruxolitinib + OSI-027; first compound 0.08 µM) | relative viability (Ruxolitinib + OSI-027; first compound 0.253 µM) | relative viability (Ruxolitinib + OSI-027; first compound 0.8 µM) | relative viability (Ruxolitinib + OSI-027; first compound 2.53 µM) | relative viability (Ruxolitinib + OSI-027; first compound 8 µM)
LCLC-103H | 1.12 | 0.938 | 1.01 | 1.06 | 1.09 | 1.23 | 1.1 | 0.999 | 1.34 | 1.1 | 0.431 | 0.552 | 0.474 | 0.473 | 0.481 | 0.497 | 0.394 | 0.48 | 0.45 | 0.488
LOU-NH91 | 0.529 | 0.906 | 0.527 | 0.555 | 0.377 | 0.94 | 0.949 | 0.989 | 1.04 | 0.898 | 0.349 | 0.385 | 0.42 | 0.416 | 0.414 | – | 0.733 | 0.729 | 0.746 | 0.686
LU99A | 1.11 | 1.23 | 1.16 | 1.08 | 0.514 | 0.496 | 0.535 | 0.545 | 0.53 | 0.278 | 0.187 | 0.164 | 0.246 | 0.163 | 0.176 | 0.339 | 0.305 | 0.298 | 0.295 | 0.268
LXF-289 | 1.04 | 1.07 | 1.1 | 1.08 | 1.11 | 0.992 | 0.945 | 1.06 | 1.1 | 1.07 | 0.897 | 0.94 | 0.933 | 0.978 | 0.759 | 0.776 | 0.79 | 0.789 | 0.698 | 0.624
NCI-H23 | 1 | 0.991 | 1.14 | 0.829 | 0.323 | 0.56 | 0.639 | 0.485 | 0.706 | 0.37 | 0.7 | 0.539 | 0.569 | 0.639 | 0.65 | 0.743 | 0.617 | 0.696 | 0.496 | 0.522
NCI-H322M | 1.24 | – | 1.33 | 1.25 | 1.08 | 0.933 | – | 1 | 0.93 | 0.771 | 0.607 | 0.618 | 0.548 | 0.609 | 0.646 | 0.506 | 0.538 | 0.704 | 0.594 | 0.63
NCI-H441 | 0.622 | 0.967 | 0.552 | 0.705 | 0.405 | 0.762 | 0.666 | 0.651 | 0.821 | 0.42 | 0.247 | – | 0.246 | 0.247 | 0.283 | 0.675 | 0.471 | 0.836 | 0.56 | 0.521
NCI-H460 | 1.51 | 1.05 | 0.977 | 0.823 | 0.248 | 1.06 | 0.657 | 0.693 | 0.239 | 0.0295 | 0.0652 | 0.0637 | 0.0589 | 0.0651 | 0.0689 | 0.686 | 0.575 | 0.721 | 0.583 | 0.615
NCI-H520 | 0.603 | 0.697 | – | 0.57 | 0.47 | 1.09 | 0.931 | – | 1.03 | 0.755 | 0.743 | 0.619 | 0.827 | 0.709 | 0.666 | 0.317 | – | 0.278 | 0.239 | 0.326
NCI-H596 | 1.21 | 1.02 | 1.08 | 1.09 | 1.09 | 1.1 | 1.18 | 1.03 | 1.15 | 0.94 | 0.475 | 0.489 | 0.394 | 0.525 | 0.502 | 0.826 | 0.699 | 0.841 | 0.69 | 0.758
NCI-H647 | 1.39 | 0.825 | 0.804 | 1.08 | 0.569 | 1.44 | 1.28 | 0.829 | 0.751 | 0.493 | 0.156 | 0.188 | 0.171 | 0.15 | 0.184 | 0.73 | 0.706 | 0.797 | 0.531 | 0.595
NCI-H650 | 0.828 | 0.709 | 0.961 | 0.753 | 1.02 | 0.959 | 0.843 | 0.863 | 0.949 | 0.714 | 0.896 | 0.983 | 0.898 | 0.958 | 1.01 | – | 0.497 | 0.618 | 0.502 | 0.341
NCI-H661 | 0.885 | 0.953 | 0.767 | 0.895 | 0.72 | 0.539 | 0.568 | 0.481 | 0.493 | 0.4 | 0.915 | 0.854 | 0.887 | 0.876 | 0.941 | 0.752 | 0.664 | 0.834 | 0.664 | 0.666
NCI-H838 | 0.912 | 0.855 | 0.485 | 1.22 | 0.652 | 1.13 | 0.992 | 0.913 | 1.11 | 0.913 | 0.226 | 0.247 | 0.241 | 0.23 | 0.262 | 0.39 | 0.318 | 0.386 | 0.266 | 0.267
